Experimental data published in patent US20240343738A1, “Method for preparing pranoprofen and composition comprising pranoprofen and impurity” (SHENYANG XINGQI PHARMACEUTICAL CO., LTD., priority 2021, published 2024).

Assay: Accelerated stability study of pranoprofen batches (impurity content by HPLC)
Assay type: physicochemical
Settings: 40° C.±2° C., RH 75%±5%; for Maximum single impurity: maximum unknown single impurity
Protocol: In the present invention, unless otherwise specified, the accelerated experiment is carried out under the conditions of 40° C.±2° C. and RH75%±5% in accordance with the regulations in the “Technical Guidelines for Stability Research of Chemical Drugs”; preferably, an average value of 3 samples measured in parallel is taken.
In the present invention, unless otherwise specified, the content of each impurity or total impurities is measured by high performance liquid chromatography. Preferably, the chromatographic conditions comprise: using octadecylsilane-bonded silica gel as filler (5 μm, 250 mm×4.6 mm); using 0.05 mol/L sodium perchlorate aqueous solution-methanol (90:10, adding perchloric acid to adjust pH to 3.2) as mobile phase A, methanol as mobile phase B, following the gradient elution in Table 10, flow rate of 1.0 ml/min, column temperature of 40° C., detection wavelength of 275 nm.
In accordance with the relevant regulations in the “Technical Guidelines for Stability Research of Chemical Drugs”, the samples of the above three batches were taken and tested for 6 months under the conditions of 40° C.±2° C. and RH 75%±5%. And at the end of the 0th, 1st, 2nd, 3rd and 6th months of the experiment, the samples were taken for the detection of indicators.
The experiment was carried out according to the high performance liquid chromatography (the General Rule 0512 of the Chinese Pharmacopoeia, 2015 edition), in which octadecylsilane bonded silica gel was used as filler (5 μm, 250 mm×4.6 mm); 0.05 mol/L sodium perchlorate aqueous solution-methanol (90:10, adjusted to pH 3.2 by adding perchloric acid) was used as mobile phase A, methanol was used as mobile phase B, and gradient elution was carried out according to the table below, flow rate was 1.0 ml/min, column temperature was 40° C., and detection wavelength was 275 nm.
10 μl of the test solution was precisely taken and injected into the liquid chromatograph. If there were impurity peaks in the chromatogram of the test solution, a single impurity must not exceed 0.1%, and the sum of impurities must not exceed 0.5%.
The impurity objects to be detected were total impurity, impurity A, impurity C, impurity D, impurity L and maximum single impurity; and the detection conditions were the same as above.
Preparation of test solution: 50 mg of this product was taken, dissolved in a solvent (acetonitrile-water=1:1) and diluted to 50 ml to obtain the test solution.
Control stock solution of mixed impurities: 10.0 mg of each of impurities A, C, D, and L were weighed, respectively, and added to 10.0 ml volumetric flask, respectively, then added with methanol for dissolution and dilution to the mark, 1.0 ml of each of the above solutions was taken and added to 100.0 ml volumetric flask, then added with solvent for dilution to the mark to obtain the control stock solution of impurities.
Control solution of mixed impurities: 1.0 ml of the test solution was accurately taken, and added with solvent for dilution to 100.0 ml; 1.0 ml of the above solution was accurately taken, added with 1.0 ml of the control stock solution of mixed impurities, and added with solvent to 10.0 ml to obtain the control solution of mixed impurities.
Preparation of system suitability solution: 1.0 ml of the control stock solution of mixed impurities was accurately taken, and added with the test solution for dilution to 10 ml to obtain the system suitability solution.
Preparation of control solution: 1.0 ml of the test solution was taken, and added with solvent for dilution to 10.0 ml; 1.0 ml of the above solution was taken, and added with solvent for dilution to 100.0 ml to obtain the control solution.

Structure (SMILES)	Impurity A (0th month)	Impurity D (0th month)	Impurity L (0th month)	Total impurities (0th month)	Impurity A (1st month after acceleration)	Impurity D (1st month after acceleration)	Impurity L (1st month after acceleration)	Total impurities (1st month after acceleration)	Impurity A (2nd month after acceleration)	Impurity D (2nd month after acceleration)	Impurity L (2nd month after acceleration)	Total impurities (2nd month after acceleration)	Impurity A (3rd month after acceleration)	Impurity D (3rd month after acceleration)	Impurity L (3rd month after acceleration)	Total impurities (3rd month after acceleration)	Impurity A (6th month after acceleration)	Impurity C (6th month after acceleration)	Impurity D (6th month after acceleration)	Impurity L (6th month after acceleration)	other results
CC(C(=O)O)c1ccc2c(c1)Cc1cccnc1O2 (stereo not drawn) [Compound 20190101, pranoprofen]	Impurity A: 0.05%	Impurity D: 0.02%	Impurity L: 0.02%	Total impurities: 0.09%	Impurity A: 0.03%	Impurity D: 0.02%	Impurity L: 0.01%	Total impurities: 0.06%	Impurity A: 0.04%	Impurity D: 0.02%	Impurity L: 0.01%	Total impurities: 0.07%	Impurity A: 0.06%	Impurity D: 0.01%	Impurity L: 0.02%	Total impurities: 0.08%	Impurity A: 0.06%	Impurity C 0.03%	Impurity D: 0.02%	Impurity L: 0.02%	Total impurities (6th month after acceleration): Total impurities: 0.17%; Maximum single impurity (6th month after acceleration): impurity: 0.02%
CC(C(=O)O)c1ccc2c(c1)Cc1cccnc1O2 (stereo not drawn) [Compound 20190201, pranoprofen]	Impurity A: 0.07%	Impurity D: 0.02%	Impurity L: 0.01%	Total impurities: 0.10%	Impurity A: 0.07%	Impurity D: 0.03%	Impurity L: 0.01%	Total impurities: 0.11%	Impurity A: 0.07%	Impurity D: 0.02%	Impurity L: 0.01%	Total impurities: 0.10%	Impurity A: 0.07%	Impurity D: 0.02%	Impurity L: 0.02%	Total impurities: 0.11%	Impurity A: 0.10%	Impurity C 0.03%	Impurity D: 0.01%	Impurity L: 0.02%	Total impurities (6th month after acceleration): Total impurities: 0.24%; Maximum single impurity (6th month after acceleration): impurity: 0.08%
CC(C(=O)O)c1ccc2c(c1)Cc1cccnc1O2 (stereo not drawn) [Compound 20190202, pranoprofen]	Impurity A: 0.02%	Impurity D: 0.02%	Impurity L: 0.01%	Total impurities: 0.05%	Impurity A: 0.05%	Impurity D: 0.01%	Impurity L: 0.02%	Total impurities: 0.06%	Impurity A: 0.04%	Impurity D: 0.02%	Impurity L: 0.01%	Total impurities: 0.07%	Impurity A: 0.04%	Impurity D: 0.02%	Impurity L: 0.01%	Total impurities: 0.07%	Impurity A: 0.09%	Impurity C 0.01%	Impurity D: 0.01%	Impurity L: 0.02%	Total impurities (6th month after acceleration): Total impurities: 0.15%; Maximum single impurity (6th month after acceleration): impurity: 0.02%
